Laboratory results published in patent publication US20220184072A1 (priority 2019, published 2022).

Key:
Format in all cases: in vivo
[1] = system: TH (tyrosine hydroxylase); experiment: CNS phosphoprotein profile, TH; settings: mice nucleus accumbens; Example 1 3 mg/kg at 30 or 60 minutes; haloperidol 2 mg/kg
Experimental: (§1) A comprehensive molecular phosphorylation study is also carried out to examine the central nervous system (CNS) profile of the compound of Example 1. The extent of protein phosphorylation for selected key central nervous system proteins is measured in mice nucleus accumbens.
(§2) Mice were killed 30 minutes to 2 hours post-injection by focused microwave cranial irradiation, which preserves brain phosphoprotein as it exists at the time of death. Nucleus accumbens was then dissected from each mouse brain, sliced and frozen in liquid nitrogen. Samples were further prepared for phosphoprotein analysis via SDS-PAGE electrophoresis followed by phosphoprotein-specific immunoblotting, as described in Zhu H, et al., Brain Res. 2010 Jun. 25; 1342:11-23. Phosphorylation at each site was quantified, normalized to total levels of the protein (non-phosphorylated), and expressed as percent of the level of phosphorylation in vehicle-treated control mice.

NR2B = experiment: CNS phosphoprotein profile, NR2B; settings: mice nucleus accumbens, 3 mg/kg, 30-60 minutes
Experimental: as §1, §2

STZ-diabetic rats = experiment: STZ-rat model, mechanical (pressure) stimuli
Experimental: The compound of Example 1 is also tested in an STZ-rat model of neuropathic pain. Briefly, adult female rats are made diabetic by treatment with streptozotocin (STZ), an alkylating neoplastic agent which is particularly toxic to the insulin-producing beta cells of the pancreas. The resulting type-I diabetes in the rats leads to the development of diabetic neuropathy over a 3 to 6-week period. […] Once diabetic neuropathy has been induced, the rats may be treated to determine the analgesic effect of compounds.
Paw mechanical response threshold is also a clinical assessment of allodynia to light touch, but it relies on the observed response to pressure (force) applied to a paw.
This test is performed by measuring the static applied force threshold (pressure) for paw removal, as described above.

ZFD rats [2] = experiment: ZFD rat model, paw cold response
Experimental: Forty (40) adult, male […] rats weighing 225-275 g at the start of the study are used in these experiments, including ten (10) lean, controls and thirty (30) ZFD rats. Animals are maintained in the vivarium at a controlled room temperature between 65 to 85° F. and a relative humidity between 30-70% under illumination by fluorescent lighting on a daily 12-hour light/dark cycle. All animals are maintained 2 per cage with free access to dry food and water.
Paw cold response threshold: This test replicates the clinical test of cold pain perception threshold. Rats are transferred to a testing cage with a wire mesh bottom and allowed to acclimate. A rigid filament attached to a Peltier thermoelectric cooling system is used to stimulate the plantar surface of the hind paw for 5 seconds. The stimulus is repeated 10 times at 2 to 5 minute intervals and the number of paw withdrawal responses is recorded and converted to a response frequency (%). This paradigm is repeated at various stimulation temperatures.
Dosing procedures. Zucker Fatty Diabetic rats are found to develop hyperglycemia over 6-8 weeks. […] Upon confirmation of the presence of painful neuropathy, rats are tested for three measures of hyperalgesia: cold allodynia threshold, tactile hyperalgesia (von Frey filaments), and pressure responses measured by a mechanical von Frey device. All rats are tested in all three assays and all rats receive each of four (4) pre-treatments administered subcutaneously (s.c.) in a vehicle of 10% Trappsol in water. All rats receive treatments in the same order, as follows: vehicle, 1 mg/kg Compound of Ex. 1, 3 mg/kg Compound of Ex. 1, and 10 mg/kg Compound of Ex. 1. Rats receive pre-treatments 30 minutes prior to the start of testing. Hyperalgesia/allodynia measures are recorded from each rat at baseline (0 time), then 1, 2, 3, 4, and 6 h after treatment.
After the completion of testing of all rats at all dose/conditions for each assay (cold, tactile, and pressure responses) rats are out-fitted with cannulas for intrathecal (i.t.) application of vehicle or Compound of Ex. 1 (1, 3 or 10 μg) directly to spinal cord. All rats are then re-tested in each of the tree assays at each of the 4 pretreatment conditions/doses.

ZFD rats [3] = experiment: ZFD rat model, manual von Frey (tactile); parameters: unit not given here
ZFD rats [4] = experiment: ZFD rat model, paw formalin test; settings: s.c. or i.t., at the end of the study
Text: Paw formalin test: This test enables discrimination of pain driven by primary afferent input (phase 1) versus spinal sensitization and amplifications of primary afferent input (phase 2). There is, however, no clinical equivalent to this test. The method used here is described in detail in Calcutt (2004), supra.

[5] = Control rats, 10 mg/kg s.c., 0 hr
[6] = Control rats, 10 mg/kg s.c., 1 hr
[7] = Control rats, 10 mg/kg s.c., 2 hr
[8] = Control rats, 10 mg/kg s.c., 4 hr

O=C1CN2c3c(cccc3[C@@H]3CN(CCCOc4ccc(F)cc4)CC[C@@H]32)N1 [Example 1, (6bR,10aS)-8-(3-(4-fluorophenoxy)propyl)-6b,7,8,9,10,10a-hexahydro-1H-pyrido[3′,4′:4,5]pyrrolo[1,2,3-de]quinoxalin-2(3H)-one]
increase in TH phosphorylation at Ser40 [1]: no significant effect
NR2B phosphorylation at Tyr1472 (NR2B): no significant effect
withdrawal force threshold (STZ-diabetic rats; 1 mg/kg s.c., 4 hours (peak)): about 40 g
withdrawal force threshold (STZ-diabetic rats; 1 mg/kg s.c., 6 hours): about 35 g
withdrawal force threshold (STZ-diabetic rats; 3 mg/kg s.c., 2 hours (peak)): about 45 g
withdrawal force threshold (STZ-diabetic rats; 3 mg/kg s.c., 6 hours): about 25 g
withdrawal force threshold (STZ-diabetic rats; 10 mg/kg s.c., 1 hour): about 60 g
withdrawal force threshold (STZ-diabetic rats; 10 mg/kg s.c., 2 hours to 4 hours): 45 to 50 g
withdrawal force threshold (STZ-diabetic rats; 10 mg/kg s.c., 6 hours): about 35 g
Cold Test response frequency (ZFD rats [2]; Control rats, 10 μg i.t., 0 hr): 17%
Cold Test response frequency (ZFD rats [2]; Control rats, 10 μg i.t., 1 hr): 11%
Cold Test response frequency (ZFD rats [2]; Control rats, 10 μg i.t., 2 hr): 20%
Cold Test response frequency (ZFD rats [2]; Control rats, 10 μg i.t., 4 hr): 14%
Cold Test response frequency (ZFD rats [2]; [5]): 16%
Cold Test response frequency (ZFD rats [2]; [6]): 18%
Cold Test response frequency (ZFD rats [2]; [7]): 10%
Cold Test response frequency (ZFD rats [2]; [8]): 10%
Cold Test response frequency (ZFD rats [2]; ZFD rats, 1 μg i.t., 0 hr): 93%
Cold Test response frequency (ZFD rats [2]; ZFD rats, 1 μg i.t., 1 hr): 90%
Cold Test response frequency (ZFD rats [2]; ZFD rats, 1 μg i.t., 2 hr): 83%
Cold Test response frequency (ZFD rats [2]; ZFD rats, 1 μg i.t., 4 hr): 83%
Cold Test response frequency (ZFD rats [2]; ZFD rats, 3 μg i.t., 0 hr): 77%
Cold Test response frequency (ZFD rats [2]; ZFD rats, 3 μg i.t., 1 hr): 37%
Cold Test response frequency (ZFD rats [2]; ZFD rats, 3 μg i.t., 2 hr): 27%
Cold Test response frequency (ZFD rats [2]; ZFD rats, 3 μg i.t., 4 hr): 70%
Cold Test response frequency (ZFD rats [2]; ZFD rats, 10 μg i.t., 0 hr): 93%
Cold Test response frequency (ZFD rats [2]; ZFD rats, 10 μg i.t., 1 hr): 33%
Cold Test response frequency (ZFD rats [2]; ZFD rats, 10 μg i.t., 2 hr): 33%
Cold Test response frequency (ZFD rats [2]; ZFD rats, 10 μg i.t., 4 hr): 77%
Cold Test response frequency (ZFD rats [2]; ZFD rats, 1 mg/kg s.c., 0 hr): 88%
Cold Test response frequency (ZFD rats [2]; ZFD rats, 1 mg/kg s.c., 1 hr): 96%
Cold Test response frequency (ZFD rats [2]; ZFD rats, 1 mg/kg s.c., 2 hr): 94%
Cold Test response frequency (ZFD rats [2]; ZFD rats, 1 mg/kg s.c., 4 hr): 86%
Cold Test response frequency (ZFD rats [2]; ZFD rats, 3 mg/kg s.c., 0 hr): 88%
Cold Test response frequency (ZFD rats [2]; ZFD rats, 3 mg/kg s.c., 1 hr): 32%
Cold Test response frequency (ZFD rats [2]; ZFD rats, 3 mg/kg s.c., 2 hr): 26%
Cold Test response frequency (ZFD rats [2]; ZFD rats, 3 mg/kg s.c., 4 hr): 90%
Cold Test response frequency (ZFD rats [2]; ZFD rats, 10 mg/kg s.c., 0 hr): 90%
Cold Test response frequency (ZFD rats [2]; ZFD rats, 10 mg/kg s.c., 1 hr): 28%
Cold Test response frequency (ZFD rats [2]; ZFD rats, 10 mg/kg s.c., 2 hr): 16%
Cold Test response frequency (ZFD rats [2]; ZFD rats, 10 mg/kg s.c., 4 hr): 48%
Manual von Frey, threshold for paw withdrawal (ZFD rats [3]; Control rats, 10 μg i.t., 0 hr): 11.90
Manual von Frey, threshold for paw withdrawal (ZFD rats [3]; Control rats, 10 μg i.t., 1 hr): 13.90
Manual von Frey, threshold for paw withdrawal (ZFD rats [3]; Control rats, 10 μg i.t., 2 hr): 14.14
Manual von Frey, threshold for paw withdrawal (ZFD rats [3]; Control rats, 10 μg i.t., 4 hr): 13.67
Manual von Frey, threshold for paw withdrawal (ZFD rats [3]; [5]): 13.98
Manual von Frey, threshold for paw withdrawal (ZFD rats [3]; [6]): 12.28
Manual von Frey, threshold for paw withdrawal (ZFD rats [3]; [7]): 13.93
Manual von Frey, threshold for paw withdrawal (ZFD rats [3]; [8]): 13.45
Manual von Frey, threshold for paw withdrawal (ZFD rats [3]; ZFD rats, 1 μg i.t., 0 hr): 2.06
Manual von Frey, threshold for paw withdrawal (ZFD rats [3]; ZFD rats, 1 μg i.t., 1 hr): 2.28
Manual von Frey, threshold for paw withdrawal (ZFD rats [3]; ZFD rats, 1 μg i.t., 4 hr): 4.25
Manual von Frey, threshold for paw withdrawal (ZFD rats [3]; ZFD rats, 3 μg i.t., 0 hr): 5.78
Manual von Frey, threshold for paw withdrawal (ZFD rats [3]; ZFD rats, 3 μg i.t., 1 hr): 9.68
Manual von Frey, threshold for paw withdrawal (ZFD rats [3]; ZFD rats, 3 μg i.t., 2 hr): 12.11
Manual von Frey, threshold for paw withdrawal (ZFD rats [3]; ZFD rats, 3 μg i.t., 4 hr): 7.01
Manual von Frey, threshold for paw withdrawal (ZFD rats [3]; ZFD rats, 10 μg i.t., 0 hr): 1.92
Manual von Frey, threshold for paw withdrawal (ZFD rats [3]; ZFD rats, 10 μg i.t., 1 hr): 8.53
Manual von Frey, threshold for paw withdrawal (ZFD rats [3]; ZFD rats, 10 μg i.t., 2 hr): 11.57
Manual von Frey, threshold for paw withdrawal (ZFD rats [3]; ZFD rats, 10 μg i.t., 4 hr): 4.77
Manual von Frey, threshold for paw withdrawal (ZFD rats [3]; ZFD rats, 1 mg/kg s.c., 1 hr): 2.61
Manual von Frey, threshold for paw withdrawal (ZFD rats [3]; ZFD rats, 1 mg/kg s.c., 2 hr): 1.70
Manual von Frey, threshold for paw withdrawal (ZFD rats [3]; ZFD rats, 1 mg/kg s.c., 4 hr): 2.07
Manual von Frey, threshold for paw withdrawal (ZFD rats [3]; ZFD rats, 3 mg/kg s.c., 0 hr): 2.22
Manual von Frey, threshold for paw withdrawal (ZFD rats [3]; ZFD rats, 3 mg/kg s.c., 1 hr): 6.48
Manual von Frey, threshold for paw withdrawal (ZFD rats [3]; ZFD rats, 3 mg/kg s.c., 2 hr): 10.15
Manual von Frey, threshold for paw withdrawal (ZFD rats [3]; ZFD rats, 10 mg/kg s.c., 0 hr): 1.71
Manual von Frey, threshold for paw withdrawal (ZFD rats [3]; ZFD rats, 10 mg/kg s.c., 1 hr): 6.97
Manual von Frey, threshold for paw withdrawal (ZFD rats [3]; ZFD rats, 10 mg/kg s.c., 2 hr): 13.47
Manual von Frey, threshold for paw withdrawal (ZFD rats [3]; ZFD rats, 10 mg/kg s.c., 4 hr): 9.25
pain responses in early or late phase of the formalin test (ZFD rats [4]): no effect
